Source: patent US9314510B2, “Human laminin α2 chain LG3 domain and active peptides promoting cell adhesion, spreading, migration, and neurite outgrowth” (SNU R&DB Foundation, priority 2011, dated 2016)
Ends that are not written are not given here.

Legend:
PC12 cells [1] = assay: Effect of EDTA or MnCl2 pretreatment on cell adhesion and spreading; type: cell-based, rat; conditions: 5 mM EDTA or 1 mM MnCl2, 15 min; for cell adhesion to laminin after pretreatment / cell adhesion to rLG3 or Ln2-LG3-P2 after pretreatment: 1 h; for cell spreading to laminin after pretreatment / cell spreading to rLG3 or Ln2-LG3-P2 after pretreatment: 3 h
Method: PC12 cells were pretreated with either 5 mM EDTA or 1 mM MnCl2 for 15 min at 37° C. and seeded on plates coated with rLG3 or the Ln2-LG3-P2 peptide. To measure cell adhesion, PC12 cells were incubated on the coated plates for 1 h and absorbance was measured. To measure cell spreading, PC12 cells were incubated on the coated plates for 3 h and relative cell area was measured using Image-Pro Plus software.

PC12 cells [2] = assay: Cell adhesion assay on coated plates (crystal violet, absorbance 570 nm); type: cell-based, rat
Method: The cell adhesion assay was performed as described in a paper published previously by the present inventors (Kim, J. M., et al, Exp. Cell Res, 2005).
Specifically, 24-well culture plates (Nunc, Denmark) were coated with 5 μg/mL human placental laminin (Sigma-Aldrich, St. Louis, Mo.) or 25 μg/mL rLG domain proteins for 12 h at 4° C. The peptides were also coated on the plates by drying for 12 h at room temperature. The substrate-coated plates were blocked with 1% heat-inactivated bovine serum albumin (BSA) in PBS for 1 h at 37° C. and then washed with PBS.
The cells were trypsinized with trypsin/EDTA and resuspended in serum-free culture medium. The cells were added at a density of 2×10^5 cells/500 μL to each plate and incubated in serum-free culture medium for 1 h at 37° C. After incubation, unattached cells were removed by rinsing twice with PBS. The attached cells were fixed with 10% formalin for 15 min and then stained with 0.5% crystal violet for 1 h. Plates were gently washed with distilled water three times and dissolved with 2% SDS for 5 min. Absorbance was measured at 570 nm using a microplate reader (BioRad).
First, PC12 cells were cultured on plates coated with varying amounts of five kinds of Ln2-PG3 peptides and then cell adhesion was observed. The peptides were coated in concentrations ranging from 0 to 125 μg/mL on plates by drying them for 12 h at room temperature.
(§1) The present inventors compared the cellular activities of Ln2-LG3-P2 peptide to scrambled peptide (SEQ ID NO:20, NWEIRCIPGNPF) of Ln2-LG3-P2 peptide and Ln2-LG3-P1 peptide to Ln2-LG3-P5 peptide at a concentration of 62.5 μg/mL where the cell adhesion activity was the maximum. […] PC12 cells were cultured on plates which were coated in the same way for 3 h in serum-free medium and the cell spreading was observed.
(§2) Specifically, to observe cell adhesion, spreading, migration, and neurite outgrowth promotion, the methods described in Experimental examples <2-1> to <2-3> were used and PC12 cells were cultured on plates coated with laminin (5 μg/mL), rLG3 (25 μg/mL), and rLG3-M1 (25 μg/mL) and observed. To observe cell adhesion, PC12 cells were incubated on the coated plates for 1 h and to observe cell spreading, PC12 cells were incubated on the coated plates for 3 h. To observe cell migration, PC12 cells were incubated on the coated plates for […].
(§3) To measure cell adhesion, spreading, migration, and neurite outgrowth promotive activities of PC12 cells using the prepared synthetic peptides that are N- and C-terminal truncated or C-terminal added peptides of the Ln2-LG3-P2 peptide, peptides described in Table 1 were coated onto plates at 62.5 μg/mL and PC12 cells were seeded thereon.

PC12 cells [3] = assay: Cell adhesion inhibition assay: peptide pretreatment, adhesion to rLG3-coated plates; type: cell-based, rat; conditions: PC12 cells pretreated with 500 μg/mL peptide; rLG3 25 μg/mL
Method: Specifically, PC12 cells were pretreated with the Ln2-LG3-P2 peptide in concentrations of 0, 0.2, 0.4, 0.6, 0.8, 1.0, or 1.2 μg/mL for 10 min at room temperature and then cultured on plates coated with rLG3 (25 μg/mL) for 1 h in serum-free medium.
PC12 cells were pretreated with 500 μg/mL of Ln2-LG3-P1, Ln2-LG3-P2, Ln2-LG3-P3, Ln2-LG3-P4, Ln2-LG3-P5 and SP (scramble peptide) (SEQ ID NO:20) for 10 min at room temperature and then cultured on plates coated with rLG3 (25 μg/mL) in serum-free medium. To observe cell adhesion, PC12 cells were incubated on the coated plates for 1 h and to observe cell spreading, PC12 cells were incubated on the coated plates for 3 h. To observe cell migration, cells were seed into the upper chamber of transwell filters coated with rLG3 (25 μg/mL) and cultured for 24 h. Cell migration was quantified by counting the number of cells that had migrated through the filter.
Specifically, PC12 cells were pretreated with Ln2-LG2-P2 (500 μg/mL) and Ln2-LG3-P2A (500 μg/mL) and then, cell adhesion was observed on plates coated with rLG3 (25 μg/mL).

PC12 cells [4] = assay: Immunostaining of actin stress fibers and focal adhesions; type: cell-based, rat; conditions: PC12 cells on coated chamber slides, 3 h, serum-free
Method: Specifically, for immunostaining, PC12 cells were incubated on Lab-Tek chamber slides (Nalge Nunc International, Rochester, N.Y.) coated with laminin (5 μg/mL), rLG domain proteins (25 μg/mL), or Scrambled peptide (SP) (25 μg/well) in serum-free medium for 3 h at 37° C. Lab-Tek chamber slides were coated with BSA for the control. After rinsing with PBS, PC12 cells were fixed with 3.7% formalin for 20 min and permeabilized with 0.5% Triton X-100 for 5 min. PC12 cells were incubated with primary antibodies for 12 h at 4° C. The primary antibodies used were 1:500 anti-vinculin (Sigma-Aldrich 9131), or 1:300 rhodamin-phalloidin (Invitrogen R154) antibodies. After rinsing with PBS, PC12 cells were immunostained with FITC-conjugated anti-mouse IgG antibody (Jackson ImmunoResearch Laboratories, West Grove, Pa.) or rhodamin-conjugated anti-mouse IgG antibody (Santa Cruz Biotechnology) for 1 h at room temperature. After being washed three times with PBS, the stained PC12 cells were mounted and photographed using a confocal laser scanning microscope (FV300; Olympus, Japan).

PC12 cells [5] = assay: Cell spreading assay on coated plates (cell surface area); type: cell-based, rat; conditions: 3 h, laminin 5 μg/mL, rLG proteins 25 μg/mL, peptides 62.5 μg/mL
Method: To determine cell spreading assays, the cells cultured on plates coated with each rLG domain protein for 1 h or 3 h in Experimental example <2-1> were fixed with 10% formalin. Then, the fixed cells were stained with 0.05% crystal violet for 1 h and plates were gently washed with PBS three times. The surface area of cells was measured with Image-Pro plus software (Version 4.5; Media Cybernetics, Silver Spring, Md.).
as §1, §2, §3

PC12 cells [6] = assay: Cell migration assay (transwell migration chambers); type: cell-based, rat; conditions: transwell filters coated with laminin 5 μg/mL, rLG proteins 25 μg/mL or peptides 62.5 μg/mL, 24 h
Method: Cell migration assays were performed using transwell migration chambers of 8 μm in pore size (Corning Inc., NY) as described in a paper published previously by the present inventors (Kim, J. M., Min, S. K., Kim, H., Kang, H. K., Jung, S. Y., Lee, S. H., Choi, Y., Roh, S., Jeong, D., and Min, B. M. (2007) Int. J. Mol. Med.).
The lower sides of transwell filters were coated with laminin (5 μg/mL) or rLG proteins (25 μg/mL) for 12 h at 4° C. The lower sides of transwell filters were blocked with 1% BSA in PBS for 1 h at 37° C. Cells were suspended at a density of 4×10^5 cells/mL in RPMI 1640 medium containing 0.5% FBS and 0.1% BSA. 100 μL of this suspension was seeded in the upper chamber of the transwell filter. Cells were allowed to migrate for 24 h at 37° C. and then fixed with 10% formalin for 15 min and stained with 0.5% crystal violet. Non-migrated cells in the upper chamber of transwell filters were removed with a cotton swab, viewed under a light microscope, and counted.
as §2

PC12 cells [7] = assay: Summary of cell adhesion, spreading, migration and neurite outgrowth promotive effects; type: cell-based, rat; conditions: summary statement of the description
Method: as §3

PC12 cells [8] = conditions: at the indicated concentrations and duration of treatment
PC12 cells [9] = assay: Effect of calphostin C pretreatment on cell adhesion; type: cell-based, rat; conditions: PC12 cells, 0.05, 0.1, 0.5 μM, 15 min; 1 h
Method: PC12 cells were pretreated with 0.05 μM, 0.1 μM, and 0.5 μM of calphostin C for 15 min at 37° C. and then incubated on plates coated with rLG3 or the Ln2-LG3-P2 peptide for 1 h.

PC12 cells [10] = assay: Neurite outgrowth assay; type: cell-based, rat; conditions: PC12 cells on coated plates, serum-free, 24 h + 72 h
Method: Laminin, rLG domain protein, and the peptide were coated onto plates and cells were seeded on the plates in serum-free medium and incubated for 24 h. After changing with serum-free medium again, cells were further cultured for 72 h and neurite outgrowth was examined.

PC12 cells [11] = assay: Inhibition of cell adhesion to laminin by rLG3 / rLG3-M1 pretreatment; type: cell-based, rat; conditions: PC12 cells pretreated with 250 μg/mL; laminin 5 μg/mL
Method: In addition, PC12 cells were pretreated with rLG3 (250 or 500 μg/mL) or vehicle (phosphate buffer, pH 3.0) for 30 min and then seeded on plates coated with laminin (5 μg/mL) for 30 min in serum-free medium and cell adhesion was observed.

Compound: O=C(O)CN(CCN(CC(=O)O)CC(=O)O)CC(=O)O [EDTA]
- cell adhesion to laminin after pretreatment (PC12 cells [1]): completely inhibited
- cell adhesion to rLG3 or Ln2-LG3-P2 after pretreatment (PC12 cells [1]): partially inhibited
- cell spreading to laminin after pretreatment (PC12 cells [1]): completely inhibited
- cell spreading to rLG3 or Ln2-LG3-P2 after pretreatment (PC12 cells [1]): partially inhibited

Compound: [Cl][Mn][Cl] [Mn^2+, MnCl2]
- cell adhesion to laminin after pretreatment (PC12 cells [1]): significantly enhanced
- cell adhesion to rLG3 or Ln2-LG3-P2 after pretreatment (PC12 cells [1]): significantly enhanced
- cell spreading to laminin after pretreatment (PC12 cells [1]): significantly enhanced
- cell spreading to rLG3 or Ln2-LG3-P2 after pretreatment (PC12 cells [1]): significantly enhanced

Compound: Ln2-LG3-P2A: Ln2-LG3-P2 peptide synthesized by substituting Arg with Ala (ANIPPFEGCIWN-NH2)
- cell adhesion compared to the control group Ln2-LG3-P2 (PC12 cells [2]; PC12 cells on plates coated with peptide (500 μg/mL, FIG. 3H)): significantly inhibited
- inhibition of cell adhesion to rLG3 (in words) (PC12 cells [3]): did not inhibit

Compound: NWEIRCIPGNPF (NWEIRCIPGNPF-NH2) [scrambled peptide, scrambled peptide of Ln2-LG3-P2 peptide, negative control, reference compound]
- actin stress fiber formation and focal adhesions (PC12 cells [4]): did not organize actin stress fibers
- cell spreading (immunostaining) (PC12 cells [4]): no effect on spreading
- cell spreading (PC12 cells [5]): entirely ineffective
- cell migration (PC12 cells [6]): entirely ineffective

Compound: PFEGCIWN (PFEGCIWN-NH2) [Ln2-LG3-P2-DN4, N-terminal truncated Ln2-LG3-P2]
- cell migration (PC12 cells [6]): did not show cell migration activity

Compound: PPFEGCIWN (PPFEGCIWN-NH2) [Ln2-LG3-P2-DN3, N-terminal truncated Ln2-LG3-P2]
- cell adhesion, spreading, migration, and neurite outgrowth promotive effects (PC12 cells [7]): significantly excellent

Compound: RNIPPFEGCIWNLVINSVPMDFAR (RNIPPFEGCIWNLVINSVPMDFAR-NH2) [Ln2-LG3-P2-AC1, C-terminal added Ln2-LG3-P2]
- cell adhesion, spreading, migration, and neurite outgrowth promotive effects (PC12 cells [7]): significantly excellent

Compound: RNIPPFEGCIWNLVINSVPMDFARPVSFKNADIGRC (RNIPPFEGCIWNLVINSVPMDFARPVSFKNADIGRC-NH2; cysteine pairing not given here) [Ln2-LG3-P2-AC2, C-terminal added Ln2-LG3-P2]
- cell adhesion, spreading, migration, and neurite outgrowth promotive effects (PC12 cells [7]): significantly excellent

Compound: calphostin C
- cell growth (PC12 cells [8]): did not affect cell growth
- cell adhesion activities to laminin, rLG3, and Ln2-LG3-P2 after inhibitor pretreatment (PC12 cells [9]): significantly inhibited in a dose-dependent manner

Compound: rLG3-M1: mutant rLG3 protein, Arg in the Ln2-LG3-P2 site substituted with Ala (ANIPPFEGCIWN) (rLG3-M1)
- neurite outgrowth (PC12 cells [10]): significantly reduced levels
- cell spreading (PC12 cells [5]): significantly reduced levels
- cell adhesion (PC12 cells [2]; PC12 cells on coated plates, 1 h, serum-free, laminin 5 μg/mL, rLG proteins 25 μg/mL, peptides 62.5 μg/mL (0 to 125 μg/mL in FIG. 2B)): significantly reduced levels
- inhibition of cell adhesion to laminin (in words) (PC12 cells [11]): did not inhibit
- cell migration (PC12 cells [6]): significantly reduced levels
